Data taken from US20250360111A1, “COMPOSITIONS OF AGPAT4 INHIBITORS AND METHODS OF USING THEREOF TO TREAT CANCER” (The University of Hong Kong, priority 2024, published 2025).

System: AGPAT LPAAT family members (AGPAT1, 2, 3, 4 and 5)
Assay: Isoform specificity: streptavidin pulldown and immunoblotting of CL26-alkyne-bound proteins
Type: cell-based, human
Conditions: Huh7 cells, DTB-PEG-azide, streptavidin pulldown
Protocol: An in-gel fluorescence assay was performed to investigate the protein targets of CL26. Huh7 cells overexpressing AGPAT4 or cysteine mutants were pre-treated with CL26 at the indicated concentrations for 2 h, followed by CL26-alkyne (1 μM) treatment for another 2 h. Cells were harvested in RIPA buffer supplemented with protease and phosphatase inhibitors (Thermo Fisher Scientific #A32961). The proteins were precipitated by incubation with 6× volume of pre-chilled acetone at −20° C. overnight. Proteins were pelleted by centrifugation at 5000 g for 10 min and resuspended in PBS. The protein content was measured using the BCA assay and normalized to 2 mg/mL. Cell lysates (50 μL) were labelled with azide-fluor 545 by click reaction (final reaction mixture: azide-fluor 545 (25 μM), copper(II) sulfate (1 mM), TBTA (100 μM), and freshly prepared TCEP (1 mM)) at room temperature with constant agitation. After incubation for 1 h, the reaction was quenched with the sampling buffer and boiled at 90° C. for 5 min. Samples were subjected to SDS-PAGE, in-gel fluorescence was captured using ChemiDoc MP (Bio-Rad), and Coomassie Blue staining was performed. Similarly, immunoblotting was used to investigate the protein targets of CL26. […] The samples were subjected to SDS-PAG E and imaged for fluorescence signals before western blot analysis. […]

For `O=C(CCl)NCc1ccc(-c2nc3ccccc3s2)o1` [CL26, N-[[5-(2-benzothiazolyl)-2-furanyl]methyl]-2-chloroacetamide], the “specificity for AGPAT4 over other AGPAT LPAAT family members” value was “only targets AGPAT4 and no other related AGPAT isoforms”.
